Data from PubChem BioAssay AID1238 (The Scripps Research Institute Molecular Screening Center, 2008).
pIC50: −log10 of the molar value. The source made the active and inactive calls. The rule behind the calls is not given here.

System: beta-lactamase reporter cell line, FRET read-out, counterscreen
Assay: beta-lactamase reporter inhibitors, potency curves, dose response, counter-screen for GALR2 antagonist project, cell-based, FRET readout (AID 1238)

Row | SMILES | IC50 | pIC50
1 | O=C(/C=C/c1ccc(Cl)cc1)NC(=S)Nc1ccc(NC(=O)c2ccco2)cc1 | > 14 µM (inactive) | –
2 | c1ccc2c(c1)OCC(CNc1ncnc3sccc13)O2 (stereo not drawn) | > 42 µM (inactive) | –
3 | Cc1ccc2[nH]c3c(N4CCc5ccccc5C4)ncnc3c2c1 | > 42 µM (inactive) | –
4 | C1=C(CCNc2ncnc3c2[nH]c2ccccc23)CCCC1 | > 42 µM (inactive) | –
5 | CCOC(=O)N1CCN(c2ncnc3c2[nH]c2ccc(F)cc23)CC1 | > 42 µM (inactive) | –
6 | CNc1nc2cc([N+](=O)[O-])c([N+](=O)[O-])cc2nc1NC | > 42 µM (inactive) | –
7 | CC(=O)c1c(C)[nH]c(C(=O)OCCCCN2C(=O)c3ccccc3C2=O)c1C | > 42 µM (inactive) | –
8 | Cn1nc(C(C)(C)C)cc1C(=O)NCc1ccc(N2CCCC2=O)cc1 | > 42 µM (inactive) | –
9 | COc1cc(/C=C/[N+](=O)[O-])ccc1O | 11.1 µM (inactive) | –
10 | O=[N+]([O-])c1cc(-c2ncccn2)c([N+](=O)[O-])s1 | – | 5.02
11 | CCc1ccccc1NC(=O)CN(C)C(=O)Cn1ncc(Cl)c(Cl)c1=O | 17.1 µM (inactive) | –
12 | Cc1cc(Nc2cccc(Cl)c2)nc(NCc2ccccc2)n1 | > 14 µM (inactive) | –
13 | Cc1nnc(SCC(=O)Nc2cccc(S(=O)(=O)N(C)c3ccccc3)c2)s1 | > 42 µM (inactive) | –
14 | Cc1cccc(C(=O)Nc2ccc(C(=O)/C=C/c3cccnc3)cc2)c1 | 17.9 µM (inactive) | –
15 | COc1ccc(CCNc2c(C)c(C)nc3ncnn23)cc1 | > 42 µM (inactive) | –
16 | CN(C(=S)NC1CCCCC1)C1(c2ccccc2Cl)CCCCC1=O (stereo not drawn) | > 42 µM (inactive) | –
17 | O=C(Nc1ccc2nc(-c3cccnc3)[nH]c2c1)C12CC3CC(CC(C3)C1)C2 | > 42 µM (inactive) | –
18 | O=C(Cn1ncc(Cl)c(Cl)c1=O)N1CCN(S(=O)(=O)c2ccc3ccccc3c2)CC1 | > 14 µM (inactive) | –
19 | c1ccc2c(c1)[nH]c1c(NCC3CCCO3)ncnc12 (stereo not drawn) | > 42 µM (inactive) | –
20 | Cc1cc(C)c(S(=O)(=O)NCc2ccncc2)c(C)c1 | > 42 µM (inactive) | –
21 | CCOc1ccc(S(=O)(=O)NCc2ccncc2)cc1 | > 42 µM (inactive) | –
22 | CC(=O)Nc1ccccc1OCC(=O)c1cc(C)n(Cc2cccs2)c1C | > 42 µM (inactive) | –

Row | SMILES | IC50 | pIC50
23 | Cc1sc2ncnc(NCCc3ccc(S(N)(=O)=O)cc3)c2c1C | > 42 µM (inactive) | –
24 | CC(=O)SC(C[N+](=O)[O-])c1cn(C(C)=O)c2ccccc12 (stereo not drawn) | 17.1 µM (inactive) | –
25 | N#C/C(=C\c1cccs1)c1nc2ccccc2[nH]1 | > 42 µM (inactive) | –
26 | O=S(=O)(NCc1ccncc1)c1ccc(Br)s1 | > 42 µM (inactive) | –
27 | c1cnc2c(c1)ccc1cccnc12 | > 42 µM (inactive) | –
28 | COC(=O)c1ccc(COC(=O)c2[nH]c(C)c(C(C)=O)c2C)o1 | > 42 µM (inactive) | –
29 | CC(=O)c1c(C)[nH]c(C(=O)OCC(=O)Nc2ccc(Cl)cc2[N+](=O)[O-])c1C | > 42 µM (inactive) | –
30 | Cc1cc(C(=O)CSc2nc3ccccc3[nH]2)c(C)n1CC1CCCO1 (stereo not drawn) | > 42 µM (inactive) | –
31 | CCOC(=O)c1ccc(N2C(=O)CC(N3CCC(O)(c4ccc(Br)cc4)CC3)C2=O)cc1 (stereo not drawn) | > 42 µM (inactive) | –
32 | O=C(Cc1cccs1)Nc1cccc(-c2nc3cc4ccccc4cc3[nH]2)c1 | > 42 µM (inactive) | –
33 | CCn1c2ccc(C)cc2c2nc3cc(C(=O)O)ccc3nc21 | > 42 µM (inactive) | –
34 | Cc1ccc(S(=O)(=O)NCc2ccncc2)cc1 | > 42 µM (inactive) | –
35 | CCOC(=O)c1cc([N+](=O)[O-])c([N+](=O)[O-])cc1NC(C)=O | – | 5.12
36 | Cc1ccc(S(=O)(=O)CC2CSc3nc4ccccc4n32)cc1 (stereo not drawn) | > 42 µM (inactive) | –
37 | CN(C)c1ccc(NC2=C(Cl)C(=O)c3ccccc3C2=O)cc1 | > 14 µM (inactive) | –
38 | CCCCOc1ncnc2c1[nH]c1ccc(F)cc12 | > 42 µM (inactive) | –
39 | CCOC(=O)COc1ccc(S(=O)(=O)NCc2ccncc2)cc1 | > 42 µM (inactive) | –
40 | CCCOc1ncnc2c1[nH]c1ccccc12 | > 42 µM (inactive) | –
41 | Cc1nc2ccc(NC(=O)c3cc(S(=O)(=O)N(C)c4ccccc4)ccc3Cl)cc2s1 | > 42 µM (inactive) | –
42 | O=C(/C=C/Sc1ncn[nH]1)c1ccc(Cl)cc1 | 17 µM (inactive) | –
43 | CC1CCC/C=C/C2CC(O)CC2C(O)/C=C/C(=O)O1 (stereo not drawn) | > 42 µM (inactive) | –
